Source: US10508104B2, “6-hydroxy-5-(phenyl/heteroarylsulfonyl)pyrimidin-4(1H)-one as APJ agonists” (Bristol-Myers Squibb Company, priority 2016, dated 2019)
Where two headings read alike, the source gives them in different places.

Target: human APJ receptor (Homo sapiens (Human), UniProt P35414)
Assay: Intracellular cAMP accumulation assay (APJ hcAMP, HTRF)
Assay type: cell-based
Details: read-out: Human APJ cAMP EC50 Potency range
How it was run: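 HEK293 cells stably expressing human APJ, 5,000 per well, incubated 30 min at rt with compound, […] and 2 μM forskolin. cAMP measured by HTRF against a cAMP standard curve as inhibition of forskolin-driven production. EC50 from variable-slope sigmoidal fit.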

[1] = human APJ, intracellular cAMP accumulation
[2] = HEK293 cells stably expressing human APJ receptor, inhibition of forskolin-mediated cAMP production

human APJ receptor, sequence (P35414 whole entry): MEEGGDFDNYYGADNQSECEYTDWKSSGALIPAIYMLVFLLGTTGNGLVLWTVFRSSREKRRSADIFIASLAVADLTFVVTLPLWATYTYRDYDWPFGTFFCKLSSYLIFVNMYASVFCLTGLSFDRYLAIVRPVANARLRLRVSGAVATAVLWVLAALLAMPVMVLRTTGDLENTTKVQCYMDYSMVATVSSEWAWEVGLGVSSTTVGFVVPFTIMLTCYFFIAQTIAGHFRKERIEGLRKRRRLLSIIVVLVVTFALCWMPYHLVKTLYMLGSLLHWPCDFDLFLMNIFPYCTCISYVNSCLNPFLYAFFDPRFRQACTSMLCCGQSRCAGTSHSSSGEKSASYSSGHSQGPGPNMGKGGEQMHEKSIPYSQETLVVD

Which EC50 [1] does the source give for `COC[C@@H](c1ccccc1)n1c(CC2CC2)nc(=O)c(S(=O)(=O)c2ccc(-c3ccncc3C)cc2)c1O` [Example 178, 2-(cyclopropylmethyl)-6-hydroxy-1-[(1R)-2-methoxy-1-phenylethyl]-5-[4-(3-methylpyridin-4-yl)benzenesulfonyl]-1,4-dihydropyrimidin-4-one] here?
The EC50 was 0.01 to 10 nM.

With `COC[C@@H](c1ccccc1)n1c(CC2CC2)nc(=O)c(S(=O)(=O)c2ccc(-c3ccnc(F)c3C)cc2)c1O` [Example 179, 2-(cyclopropylmethyl)-5-[4-(2-fluoro-3-methylpyridin-4-yl)benzenesulfonyl]-6-hydroxy-1-[(1R)-2-methoxy-1-phenylethyl]-1,4-dihydropyrimidin-4-one] as the compound, how does the EC50 [1] read?
Its EC50 is 0.01 to 10 nM.

With `COC[C@@H](c1ccccc1)n1c(CC2CC2)nc(=O)c(S(=O)(=O)c2ccc(-c3cccnc3C)cc2)c1O` [Example 180, 2-(cyclopropylmethyl)-6-hydroxy-1-[(1R)-2-methoxy-1-phenylethyl]-5-[4-(2-methylpyridin-3-yl)benzenesulfonyl]-1,4-dihydropyrimidin-4-one] as the compound, how does the EC50 [1] read?
The EC50 was 0.01 to 10 nM.

`COC[C@@H](c1ccccc1)n1c(CC2CC2)nc(=O)c(S(=O)(=O)c2ccc(-c3cncc(F)c3)cc2)c1O` [Example 181, 2-(cyclopropylmethyl)-5-[4-(5-fluoropyridin-3-yl)benzenesulfonyl]-6-hydroxy-1-[(1R)-2-methoxy-1-phenylethyl]-1,4-dihydropyrimidin-4-one] was tested. Which EC50 [1] did it give?
The EC50 was 0.01 to 10 nM.

How did the EC50 [1] turn out when `COC[C@@H](c1ccccc1)n1c(CC2CC2)nc(=O)c(S(=O)(=O)c2ccc(-c3ccc(F)nc3)cc2)c1O` [Example 182, 2-(cyclopropylmethyl)-5-[4-(6-fluoropyridin-3-yl)benzenesulfonyl]-6-hydroxy-1-[(1R)-2-methoxy-1-phenylethyl]-1,4-dihydropyrimidin-4-one] was run?
The EC50 was 0.01 to 10 nM.

`COC[C@@H](c1ccccc1)n1c(CC2CC2)nc(=O)c(S(=O)(=O)c2ccc(-c3ccc(F)nc3C)cc2)c1O` [Example 183, 2-(cyclopropylmethyl)-5-[4-(6-fluoro-2-methylpyridin-3-yl)benzenesulfonyl]-6-hydroxy-1-[(1R)-2-methoxy-1-phenylethyl]-1,4-dihydropyrimidin-4-one] was tested. Which EC50 [1] did it give?
The EC50 was 0.01 to 10 nM.

`COC[C@@H](c1ccccc1)n1c(CCC(C)C)nc(=O)c(S(=O)(=O)c2ccc(Br)cc2)c1O` [Example 184, (R)-5-((4-Bromophenyl)sulfonyl)-6-hydroxy-2-isopentyl-3-(2-methoxy-1-phenylethyl)pyrimidin-4(3H)-one] was tested. Which EC50 [2] did it give?
The EC50 was 10 to 100 nM.

With `CCCCc1nc(=O)c(S(=O)(=O)c2ccc(Br)cc2)c(O)n1[C@H](C)c1ccc(OC)cc1` [Example 185, 5-(4-bromobenzenesulfonyl)-2-butyl-6-hydroxy-1-[(1R)-1-(4-methoxyphenyl)ethyl]-1,4-dihydropyrimidin-4-one] as the compound, how does the EC50 [1] read?
The EC50 was 100 to 300 nM.

Which EC50 [1] does the source give for `CCCCc1nc(O)c(S(=O)(=O)c2ccc(Br)cc2)c(=O)n1C(C)c1cccnc1` (centres unmarked) [Example 187, 5-(4-bromobenzenesulfonyl)-2-butyl-6-hydroxy-3-[1-(pyridin-3-yl)ethyl]-3,4-dihydropyrimidin-4-one] here?
Its EC50 is 100 to 300 nM.

Which EC50 [2] does the source give for `COC[C@@H](c1ccccc1)n1c(CCC(C)C)nc(=O)c(S(=O)(=O)c2ccc(-c3ccnc(F)c3C)cc2)c1O` [Example 189, (R)-5-((4-(2-Fluoro-3-methylpyridin-4-yl)phenyl)sulfonyl)-6-hydroxy-2-isopentyl-1-(2-methoxy-1-phenylethyl)pyrimidin-4(1H)-one] here?
The EC50 was 0.01 to 10 nM.

Which EC50 [1] does the source give for `COC[C@@H](c1ccccc1)n1c(CCC(C)C)nc(=O)c(S(=O)(=O)c2ccc(-c3cccnc3C)cc2)c1O` [Example 190, 6-hydroxy-1-[(1R)-2-methoxy-1-phenylethyl]-2-(3-methylbutyl)-5-[4-(2-methylpyridin-3-yl)benzenesulfonyl]-1,4-dihydropyrimidin-4-one] here?
The EC50 was 0.01 to 10 nM.

`COC[C@@H](c1ccccc1)n1c(CCC(C)C)nc(=O)c(S(=O)(=O)c2ccc(-c3ccncc3C)cc2)c1O` [Example 191, 6-hydroxy-1-[(1R)-2-methoxy-1-phenylethyl]-2-(3-methylbutyl)-5-[4-(3-methylpyridin-4-yl)benzenesulfonyl]-1,4-dihydropyrimidin-4-one] was tested. Which EC50 [1] did it give?
Its EC50 is 0.01 to 10 nM.

How did the EC50 [1] turn out when `CCCCc1nc(=O)c(S(=O)(=O)c2ccc(-c3ccncc3C)cc2)c(O)n1[C@@H](CC)c1cccc(Cl)c1` [Example 192, 2-butyl-1-[(1S)-1-(3-chlorophenyl)propyl]-6-hydroxy-5-[4-(3-methylpyridin-4-yl)benzenesulfonyl]-1,4-dihydropyrimidin-4-one] was run?
Its EC50 is 0.01 to 10 nM.

For `CCCCc1nc(=O)c(S(=O)(=O)c2ccc(-c3cccnc3C)cc2)c(O)n1[C@@H](CC)c1cccc(Cl)c1` [Example 193, 2-butyl-1-[(1S)-1-(3-chlorophenyl)propyl]-6-hydroxy-5-[4-(2-methylpyridin-3-yl)benzenesulfonyl]-1,4-dihydropyrimidin-4-one], which EC50 [1] is on record?
The EC50 was 0.01 to 10 nM.

How did the EC50 [1] turn out when `CCCCc1nc(=O)c(S(=O)(=O)c2ccc(-c3ccnc(F)c3C)cc2)c(O)n1[C@@H](CC)c1cccc(Cl)c1` [Example 194, 2-butyl-1-[(1S)-1-(3-chlorophenyl)propyl]-5-[4-(2-fluoro-3-methylpyridin-4-yl)benzenesulfonyl]-6-hydroxy-1,4-dihydropyrimidin-4-one] was run?
The EC50 was 0.01 to 10 nM.

How did the EC50 [1] turn out when `COC[C@@H](c1ccccc1)n1c(CCC(C)C)nc(=O)c(S(=O)(=O)c2ccc(-c3cncc(F)c3)cc2)c1O` [Example 195, 5-[4-(5-fluoropyridin-3-yl)benzenesulfonyl]-6-hydroxy-1-[(1R)-2-methoxy-1-phenylethyl]-2-(3-methylbutyl)-1,4-dihydropyrimidin-4-one] was run?
The EC50 was 0.01 to 10 nM.

Which EC50 [1] does the source give for `COC[C@@H](c1ccccc1)n1c(CCC(C)C)nc(=O)c(S(=O)(=O)c2ccc(-c3ccc(F)nc3C)cc2)c1O` [Example 196, 5-[4-(6-fluoro-2-methylpyridin-3-yl)benzenesulfonyl]-6-hydroxy-1-[(1R)-2-methoxy-1-phenylethyl]-2-(3-methylbutyl)-1,4-dihydropyrimidin-4-one] here?
The EC50 was 0.01 to 10 nM.

How did the EC50 [1] turn out when `CCCCc1nc(=O)c(S(=O)(=O)c2ccc(-c3cncc(F)c3)cc2)c(O)n1[C@@H](CC)c1cccc(Cl)c1` [Example 197, 2-butyl-1-[(1S)-1-(3-chlorophenyl)propyl]-5-[4-(5-fluoropyridin-3-yl)benzenesulfonyl]-6-hydroxy-1,4-dihydropyrimidin-4-one] was run?
The EC50 was 0.01 to 10 nM.

For `CCCCc1nc(=O)c(S(=O)(=O)c2ccc(-c3ccc(F)nc3C)cc2)c(O)n1[C@@H](CC)c1cccc(Cl)c1` [Example 198, 2-butyl-1-[(1S)-1-(3-chlorophenyl)propyl]-5-[4-(6-fluoro-2-methylpyridin-3-yl)benzenesulfonyl]-6-hydroxy-1,4-dihydropyrimidin-4-one], which EC50 [1] is on record?
The EC50 was 0.01 to 10 nM.

How did the EC50 [1] turn out when `COC[C@@H](c1ccccc1)n1c(CCC(C)C)nc(=O)c(S(=O)(=O)c2ccc(-c3ccc(F)nc3)cc2)c1O` [Example 199, 5-[4-(6-fluoropyridin-3-yl)benzenesulfonyl]-6-hydroxy-1-[(1R)-2-methoxy-1-phenylethyl]-2-(3-methylbutyl)-1,4-dihydropyrimidin-4-one] was run?
Its EC50 is 0.01 to 10 nM.

With `CCCCc1nc(=O)c(S(=O)(=O)c2ccc(-c3ccc(F)nc3)cc2)c(O)n1[C@@H](CC)c1cccc(Cl)c1` [Example 200, 2-butyl-1-[(1S)-1-(3-chlorophenyl)propyl]-5-[4-(6-fluoropyridin-3-yl)benzenesulfonyl]-6-hydroxy-1,4-dihydropyrimidin-4-one] as the compound, how does the EC50 [1] read?
The EC50 was 0.01 to 10 nM.

Which EC50 [1] does the source give for `CCCCc1nc(=O)c(S(=O)(=O)c2ccc(-c3ccncc3C)cc2)c(O)n1C(c1ccccc1)C1CC1` (centres unmarked) [Example 201] here?
The EC50 was 0.01 to 10 nM.

With `CCCCc1nc(=O)c(S(=O)(=O)c2ccc(-c3ccc(F)nc3C)cc2)c(O)n1C(c1ccccc1)C1CC1` (centres unmarked) [Example 202, 2-butyl-1-[cyclopropyl(phenyl)methyl]-5-[4-(6-fluoro-2-methylpyridin-3-yl)benzenesulfonyl]-6-hydroxy-1,4-dihydropyrimidin-4-one] as the compound, how does the EC50 [1] read?
The EC50 was 0.01 to 10 nM.

`CCCCc1nc(=O)c(S(=O)(=O)c2ccc(-c3ccnc(F)c3C)cc2)c(O)n1C(C)c1cccnc1` (centres unmarked) [Example 203, 2-butyl-5-[4-(2-fluoro-3-methylpyridin-4-yl)benzenesulfonyl]-6-hydroxy-1-[1-(pyridin-3-yl)ethyl]-1,4-dihydropyrimidin-4-one] was tested. Which EC50 [1] did it give?
Its EC50 is 0.01 to 10 nM.

Which EC50 [1] does the source give for `CCCCc1nc(=O)c(S(=O)(=O)c2ccc(-c3ccnc(F)c3C)cc2)c(O)n1C(c1ccccc1)C1CC1` (centres unmarked) [Example 204, 2-butyl-1-[cyclopropyl(phenyl)methyl]-5-[4-(2-fluoro-3-methylpyridin-4-yl)benzenesulfonyl]-6-hydroxy-1,4-dihydropyrimidin-4-one] here?
The EC50 was 0.01 to 10 nM.

Which EC50 [1] does the source give for `CCCCc1nc(=O)c(S(=O)(=O)c2ccc(-c3ccncc3C)cc2)c(O)n1C(C)c1cccnc1` (centres unmarked) [Example 205, 2-butyl-6-hydroxy-5-[4-(3-methylpyridin-4-yl)benzenesulfonyl]-1-[1-(pyridin-3-yl)ethyl]-1,4-dihydropyrimidin-4-one] here?
The EC50 was 0.01 to 10 nM.

Which EC50 [1] does the source give for `CCCCc1nc(=O)c(S(=O)(=O)c2ccc(-c3cccnc3C)cc2)c(O)n1C(c1ccccc1)C1CC1` (centres unmarked) [Example 206, 2-butyl-1-[cyclopropyl(phenyl)methyl]-6-hydroxy-5-[4-(2-methylpyridin-3-yl)benzenesulfonyl]-1,4-dihydropyrimidin-4-one] here?
The EC50 was 0.01 to 10 nM.

For `CC[C@@H](c1ccccc1)n1c(CCC(C)C)nc(=O)c(S(=O)(=O)c2ccc(-c3ccnc(F)c3C)cc2)c1O` [Example 207, 5-[4-(2-fluoro-3-methylpyridin-4-yl)benzenesulfonyl]-6-hydroxy-2-(3-methylbutyl)-1-[(1S)-1-phenylpropyl]-1,4-dihydropyrimidin-4-one], which EC50 [1] is on record?
Its EC50 is 0.01 to 10 nM.

For `CC[C@@H](c1ccccc1)n1c(CCC(C)C)nc(=O)c(S(=O)(=O)c2ccc(-c3ccc(F)nc3C)cc2)c1O` [Example 208, 5-[4-(6-fluoro-2-methylpyridin-3-yl)benzenesulfonyl]-6-hydroxy-2-(3-methylbutyl)-1-[(1S)-1-phenylpropyl]-1,4-dihydropyrimidin-4-one], which EC50 [1] is on record?
Its EC50 is 0.01 to 10 nM.
